Reference: patent publication US20170202792A1, “METHOD FOR TREATING TAU-ASSOCIATED DISEASES” (NATIONAL TAIWAN NORMAL UNIVERSITY, priority 2016, published 2017)

Experiments:
[1] = system: cholinergic, serotonergic and noradrenergic neurons; experiment: Immunohistochemical staining in brain region (ChAT, TH, 5HT neurons); type: in vivo, mouse; details: for 5HT (serotonergic neurons in the Raphe nucleus) quantification / TH (noradrenergic neurons in the LC region) quantification: 0.25 mg/kg i.p. daily 28 days
Experimental: (§1) Hyperglycemia was induced by streptozotocin (STZ) to accelerated Alzheimer's disease progression of 6-month-old male transgenic 3×Tg−AD mice. Half of the 3×Tg−AD mice (n=30) received STZ (100 mg/kg) intraperitoneal injection at days 1, 2, 8, and 9 respectively as the high blood glucose group (HBG); another half of the 3×Tg-AD mice (n=30) received sodium citrate (0.1 M) at the same time points as the normal blood glucose group (NBG). Then, HBG and NBG were divided into two groups respectively to give four groups such as NBG-compound (I), HBG-compound (I), NBG-DMSO, and HBG-DMSO with n=15 in each group; wherein 0.25 mg/kg of compound (I) (in 30 μL) were intraperitoneal injected into those mice of NBG-compound (I) and HBG-compound (I) groups daily since day 14 for 28 days, and 30 μL of DMSO solvent were intraperitoneal injected into those mice of NBG-DMSO and HBG-DMSO groups daily since day 14 for 28 days. Both mouse body weight (BW) and blood glucose (BG) were monitored every week.
Neurons including the cholinergic neurons in the medial septum (MS), vertical diagonal band of Broca (VDB), and horizontal diagonal band of Broca (HDB) regions; the serotonergic neurons in the Raphe nucleus; and the noradrenergic neurons in the locus coeruleus (LC) region, which are related to cognition in the other brain regions were examined.
After the brain tissue of the mice were fixed and dehydrated, the tissue was cryosectioned (30 μm). The cryosections were then washed with phosphate buffered saline (PBS) for three times. After the optimal cutting temperature compound (OCT) was removed, 3% H2O2was used to remove the endogenous peroxidase, and the cryosections were blocked by the blocking solution for 1 hour to reduce non-specific antigen reactions. The primary antibodies (ChAT, TH, 5HT) were added and reacted for 12 hours, the secondary antibody (1:200 dilution in blocking solution, Vecter) was added and reacted for 1 hour, and then, the avidin-biotin complex was added and reacted for 1 hour. Finally, DAB-kit was used for coloring. All the stained sections were attached to the slides, dried, dehydrated, and mounted for imaging and quantification (Image Pro Plus).

3×Tg-AD mice = experiment: Morris water maze (MWM) test; type: in vivo, mouse
Experimental: as §1
Morris water maze (MWM) was conducted to evaluate the learning and memory ability of the mice at days 34-42. At first, during the 4 training days, each of the mice received four trails a day, wherein each of the mice was released into the water from a starting point that randomly varied between trials, and the time required for each of the mice to find the hidden platform to escape from the water maze (escape latency) was calculated, and the curve of 4 training days represent the learning profile of mice. 24 hours after the final training trial, the mice underwent three testing trials to determine the time required to find the hidden platform as a measure of spatial learning acquisition. The probe trials were conducted 48 hours after the end of the testing trials to evaluate the long-term spatial memory, wherein each mouse was allowed to swim freely in a pool without platform for 60 seconds, and the duration of the mouse spent in the target quadrant (where the platform was originally disposed) was measured to represent the degree of memory consolidation after learning.

IL-6 and TNF-α = experiment: Content analysis of IL-6 and TNF-α in serum (ELISA); type: in vivo, mouse; details: both normal and high blood glucose groups; 0.25 mg/kg i.p. daily
Experimental: Hyperglycemia was induced by streptozotocin (STZ) to accelerated Alzheimer's disease progression of 6-month-old male transgenic 3×Tg−AD mice. Half of the 3×Tg−AD mice (n=30) received STZ (100 mg/kg) intraperitoneal injection at days 1, 2, 8, and 9 respectively as the high blood glucose group (HBG); another half of the 3×Tg-AD mice (n=30) received sodium citrate (0.1 M) at the same time points as the normal blood glucose group (NBG). […] Both mouse body weight (BW) and blood glucose (BG) were monitored every week.
Additionally, the peripheral inflammatory cytokine in four groups of mice were evaluated. The collected blood was centrifuged (2000×g) for 20 minutes at 4° C., and the supernatant was analyzed using mouse TNF-α ELISA kit and IL-6 ELISA kit (R&D system). OD450 nm absorbance was detected by ELISA reader, and the concentration of IL-6 and of TNF-α were obtained by interpolating the standard curve and shown in FIG. 11, wherein *p<0.05. […]

HSPB1 = experiment: Western blot of HSPB1 expression in tauRD-DsRed SH-SY5Y cells; type: cell-based, human; details: untreated = 100%
From the text: (§2) Furthermore, chaperones are molecules essential for proper protein folding which play a key role in protein-folding disorders in central nervous system. […] Moreover, the upregulation of endoplasmic reticulum chaperones such as glucose-regulated protein, 78 kDa (GRP78) is a cellular protective response against AD (Hoshino et al., 2007. Endoplasmic reticulum chaperones inhibit the production of amyloid-(3 peptides. Biochem. J. 402, 581-589). Accordingly, the GRP78 and HSPB1 expression in tauRD-DsRed SH-SYSY cells treated by Congo red and compound (I) with or without doxycycline were analyzed.
(§3) Western blotting analysis was applied for examining the expressions of HSPB1 and GRP78, the method was as follows: total proteins were extracted using RIPA buffer, which comprised 50 mM Tris-HCl, 150 mM NaCl, 1 mM EDTA, 1 mM EGTA, 0.1% SDS, 0.5% sodium deoxycholate, 1% Triton X-100, and a protease inhibitor cocktail (Calbiochem). […] Next, immunoreactive bands were detected using horseradish peroxidase-conjugated goat anti-mouse, goat anti-rabbit, or donkey anti-goat IgG antibodies (1:5000; GeneTex) and chemiluminescent substrate (Millipore).

[2] = system: GSK-3β (total and p-Ser9); experiment: Western blot of total and phosphorylated GSK-3β in tauRD-DsRed SH-SY5Y cells; type: cell-based, human
Experimental: Western blotting analysis was applied for examining the expressions of HSPB1 and GRP78, the method was as follows: total proteins were extracted using RIPA buffer, which comprised 50 mM Tris-HCl, 150 mM NaCl, 1 mM EDTA, 1 mM EGTA, 0.1% SDS, 0.5% sodium deoxycholate, 1% Triton X-100, and a protease inhibitor cocktail (Calbiochem). […] of total proteins were separated on 10% SDS-PAGE gels and blotted onto nitrocellulose membrane which were stained (4° C., overnight) with antibodies against DsRed (1:500; Santa Cruz), HSPB1 (1:500; Santa Cruz), and GRP78 (1:200; Santa Cruz). Next, immunoreactive bands were detected using horseradish peroxidase-conjugated goat anti-mouse, goat anti-rabbit, or donkey anti-goat IgG antibodies (1:5000; GeneTex) and chemiluminescent substrate (Millipore).
The methods of cell culture and western blot analysis are similar to that described above, except that the antibodies against GSK-3β (total and p-Ser9) (1:1000; Cell Signaling), total tau (1:500; Dako), p-tau (Ser202) (1:500; AnaSpec), p-tau (Thr231 and Ser396) (1:1000; Invitrogen), [3-actin (1:5000; Millipore), or GAPDH (1:2000; MDBio) were used herein for evaluation of the expression levels thereof in the cells.

GRP78 = experiment: Western blot of GRP78 expression in tauRD-DsRed SH-SY5Y cells; type: cell-based, human; details: untreated = 100%
From the text: as §2, §3

SMILES: CCCCC/C=C\C/C=C\C/C=C\C/C=C\CCCC(=O)Nc1ccc(O)cc1 [compound (I), (5Z, 8Z, 11Z,14Z)-N-(4-Hydroxyphenyl)icosa-5 ,8 , 11,14-tetraen amide]
- 5HT (serotonergic neurons in the Raphe nucleus) quantification ([1]; HBG 3×Tg-AD mice): 33.00 ± 1.78↑↑↑
- TH (noradrenergic neurons in the LC region) quantification ([1]; HBG 3×Tg-AD mice): 56.89 ± 4.45↓
- 5HT (serotonergic neurons in the Raphe nucleus) quantification ([1]; NBG 3×Tg-AD mice): 31.80 ± 2.04
- TH (noradrenergic neurons in the LC region) quantification ([1]; NBG 3×Tg-AD mice): 75.75 ± 3.12
- cholinergic neurons (ChAT; MS, VDB, HDB regions) ([1]; data not shown, among groups): no difference was identified
- duration in target quadrant of probe trial in MWM (long-term memory) (3×Tg-AD mice; 0.25 mg/kg i.p. daily): ameliorate the long-term memory damages
- swimming velocity in MWM (3×Tg-AD mice; 4 training days, 0.25 mg/kg i.p. daily, among 4 groups): no difference
- escape latency of 4 training days in MWM (learning ability) (3×Tg-AD mice; high blood glucose groups, 0.25 mg/kg i.p. daily vs DMSO): better learning ability
- IL-6 level in serum (IL-6 and TNF-α): down-regulated
- TNF-α level in serum (IL-6 and TNF-α): down-regulated
- expression of HSPB1 relative to untreated cells (HSPB1): 174%
- GSK-3β expression [2]: down-regulated
- expression level of phosphorylated GSK-3β [2]: increased
- expression of GRP78 relative to untreated cells (GRP78): 189%
